{"source": "patent US5753516A", "about": "“Screening method for ligands of the EBI-1 receptor” (priority 1995, dated 1998)", "key": {"human T cells [1]": {"tested_on": "human T cells", "details": "Heagy et al., 1990; cited from earlier work"}, "LAZ 221 cells": {"tested_on": "LAZ 221 cells", "experiment": "Migration (chemotaxis) of LAZ 221 pre-B ALL cells", "format": "cell-based, human", "details": "LAZ 221, peptide 100 nM; spontaneous locomotion 1886"}, "NALM 6 cells": {"tested_on": "NALM 6 cells", "experiment": "Migration (chemotaxis) of NALM 6 pre-B ALL cells", "format": "cell-based, human", "details": "for cell migration (cell counts): NALM 6, peptide 100 nM, spontaneous locomotion 2190; for concentration inducing migration: NALM 6 and LAZ 221; for effect on migration of pre-B ALL cells: NALM 6 and LAZ 221 cells"}, "LAZ 388 cells": {"tested_on": "LAZ 388 cells", "experiment": "Migration (chemotaxis) of LAZ 388 EBV-transformed B cells", "format": "cell-based, human", "details": "LAZ 388, peptide 100 nM; spontaneous locomotion 1938"}, "Jurkat cells [2]": {"tested_on": "Jurkat cells"}, "EBI1": {"target": "T1, EBI1 (Homo sapiens, UniProt P32248)", "T1 sequence (P32248 25-378)": "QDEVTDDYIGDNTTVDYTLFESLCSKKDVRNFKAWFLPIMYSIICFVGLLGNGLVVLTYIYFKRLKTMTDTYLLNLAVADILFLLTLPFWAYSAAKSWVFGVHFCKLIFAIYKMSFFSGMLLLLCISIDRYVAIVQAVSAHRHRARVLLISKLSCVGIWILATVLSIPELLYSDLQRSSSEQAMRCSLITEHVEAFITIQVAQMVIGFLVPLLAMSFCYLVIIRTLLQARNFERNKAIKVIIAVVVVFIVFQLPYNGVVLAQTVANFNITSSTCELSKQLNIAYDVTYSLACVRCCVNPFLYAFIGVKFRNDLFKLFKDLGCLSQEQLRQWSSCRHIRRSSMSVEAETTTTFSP"}, "COS (Vector Control)": {"tested_on": "COS (Vector Control)", "experiment": "cAMP accumulation in COS cells (vector control)", "format": "cell-based, monkey", "details": "COS (Vector Control); MET-ENK 0.01 nM, naloxone 10 μM, forskolin 0.1 μM; controls 40.2 and 38.8"}, "human T cells [3]": {"tested_on": "human T cells", "experiment": "Migration of human peripheral blood T cells", "format": "cell-based"}, "[4]": {"tested_on": "lymphocytes and macrophages", "details": "animals; cited from earlier work"}, "leukocytes": {"tested_on": "leukocytes", "details": "Lu et al., 1960; cited from earlier work"}, "Jurkat cells [5]": {"tested_on": "Jurkat cells", "experiment": "[Ca^2+ ]i response of Jurkat cells (Indo-1, flow cytometry)", "format": "cell-based, human", "experimental": "FIG. 14, Panel A and B. Methionine enkephalin and opiate receptor agonists selective for […] stimulate transmembrane signaling in Jurkat cells. Cells were labeled with Indo-1, washed twice in serum-free medium and held at 4° C. until analyzed. Indo-1 fluorescence was measured using flow cytometry as previously described (Heagy et al., 1992; Ledbetter et al., 1987; Chang et al., 1989; Rabinovitch et al., 1986). The fluorescence for nonstimulated cells (measured in medium, alone) was arbitrarily set at 1.0. Data are presented as per cent increase in the response [(r-baseline) x 100%]. Baseline [Ca^2+ ]i value measured for Jurkat cells (n=4) was 80±40 nM. Baseline Panel A, Jurkat cell response to MET-ENK (0.1 nM, 10 nM and 1 μM) and to the d- selective agonist Dermenkephalin (10 nM). Panel B, Jurkat cell response to the d- selective agonist (D-Pen ^2,5, p Cl-Phe^4)-ENK (0.1 nM. 10 nM. 1 μM).\nThe inventors (Heagy et al., 1992) have previously shown that when applied to NALM 6 cells the κ-1 agonist U69,953 stimulates a rapid increase in [Ca^2+ ]i. […] In order to determine whether the sites the inventors have identified using the δ-selective agonists also elicit Ca^2+ responses the inventors measured the effects of opioid peptides and δ-selective agonists on the calcium response. […] These studies provide evidence that Jurkat cells have functional δ opiate receptor sites which stimulate transmembrane signaling via rapid increases in [Ca^2+ ]i."}, "[6]": {"target": "EBI1, novel lymphocyte R7G opioid binding protein (human)", "experiment": "radioligand filtration assay on membranes of EBI1-transfected COS cells; nonspecific binding with 50 µM naloxone"}, "[7]": {"target": "Jurkat cells (T cell leukemia cell line), enkephalin/opiate binding sites not defined as a molecule", "experiment": "flow cytometry of MET-ENK-FITC on Jurkat cells, two-site model, high affinity site"}, "[8]": {"target": "Jurkat cells (T cell leukemia cell line), enkephalin/opiate binding sites not defined as a molecule", "experiment": "flow cytometry of MET-ENK-FITC on Jurkat cells, two-site model, low affinity site"}, "[9]": {"target": "NALM 6 cells (pre-B acute lymphoblastic leukemia cell line), enkephalin/opiate binding sites not defined as a molecule", "experiment": "flow cytometry of MET-ENK-FITC on NALM 6 cells, two-site model, low affinity site"}, "[10]": {"target": "NALM 6 cells (pre-B acute lymphoblastic leukemia cell line), enkephalin/opiate binding sites not defined as a molecule", "experiment": "flow cytometry of MET-ENK-FITC on NALM 6 cells, two-site model, high affinity site"}}}
{"compound": "CC(C)C[C@@H](NC(=O)[C@H](Cc1ccccc1)NC(=O)CNC(=O)[C@@H](C)NC(=O)[C@@H](N)Cc1ccc(O)cc1)C(=O)O", "note": "[DADLE, [D-Ala^2,D-Leu5]-enkephalin]", "values": [{"measurement": "human T cell migration", "setting": "human T cells [1]", "result": "potent stimulants for the migration of isolated human T cells"}, {"measurement": "cell migration (cell counts)", "setting": "LAZ 221 cells", "result": 4405, "unit": "cell counts"}, {"measurement": "cell migration (cell counts)", "setting": "NALM 6 cells", "result": 6240, "unit": "cell counts"}, {"measurement": "concentration inducing migration", "setting": "NALM 6 cells", "result": "≤ 10^-10 M"}, {"measurement": "effect on migration of pre-B ALL cells", "setting": "NALM 6 cells", "result": "enhanced, albeit modestly, the migration of NALM 6 and LAZ 221 cells"}, {"measurement": "cell migration (cell counts)", "setting": "LAZ 388 cells", "result": 2283, "unit": "cell counts"}, {"measurement": "specific binding, % of total", "setting": "Jurkat cells [2]", "result": "50-60%"}]}
{"compound": "C[C@@H](NC(=O)[C@@H](N)Cc1ccc(O)cc1)C(=O)NCC(=O)N(C)[C@@H](Cc1ccccc1)C(=O)NCCO", "note": "[DAMGO, [D-Ala^2, Me-Phe^4, Gly(ol)^5]-enkephalin]", "values": [{"measurement": "human T cell migration", "setting": "human T cells [1]", "result": "potent stimulants for the migration of isolated human T cells"}, {"measurement": "cell migration (cell counts)", "setting": "LAZ 221 cells", "result": 4602, "unit": "cell counts"}, {"measurement": "cell migration (cell counts)", "setting": "NALM 6 cells", "result": 5070, "unit": "cell counts"}, {"measurement": "concentration inducing migration", "setting": "NALM 6 cells", "result": "≤ 10^-10 M"}, {"measurement": "effect on migration of pre-B ALL cells", "setting": "NALM 6 cells", "result": "enhanced, albeit modestly, the migration of NALM 6 and LAZ 221 cells"}, {"measurement": "cell migration (cell counts)", "setting": "LAZ 388 cells", "result": 2043, "unit": "cell counts"}]}
{"compound": "CSCC[C@H](NC=O)C(=O)N[C@@H](CC(C)C)C(=O)N[C@@H](Cc1ccccc1)C(=O)O", "note": "[FMLP]", "values": [{"measurement": "cell migration (cell counts)", "setting": "LAZ 221 cells", "result": 2906, "unit": "cell counts"}, {"measurement": "cell migration (cell counts)", "setting": "NALM 6 cells", "result": 3198, "unit": "cell counts"}, {"measurement": "effect on migration of pre-B ALL cells", "setting": "NALM 6 cells", "result": "had no effect on the migration of the pre-B ALL cells"}, {"measurement": "cell migration (cell counts)", "setting": "LAZ 388 cells", "result": 1914, "unit": "cell counts"}]}
{"compound": "C=C[C@@]1(C)CC(=O)[C@]2(O)[C@@]3(C)[C@@H](O)CCC(C)(C)[C@@H]3[C@H](O)[C@H](OC(C)=O)[C@@]2(C)O1", "note": "[Forskolin]", "values": [{"measurement": "cAMP", "setting": "EBI1", "result": 234.8, "unit": "fmoles/cell × 10^3"}, {"measurement": "cAMP", "setting": "COS (Vector Control)", "result": 130.5, "unit": "fmoles/cell × 10^3"}]}
{"compound": "CC(C)C[C@H](NC(=O)[C@H](Cc1ccccc1)NC(=O)CNC(=O)CNC(=O)[C@@H](N)Cc1ccc(O)cc1)C(=O)O", "note": "[LEU-ENK]", "values": [{"measurement": "human lymphocyte / T cell migration", "setting": "human T cells [3]", "result": "stimulate human lymphocyte migration"}, {"measurement": "lowest concentration at which T cell migration was detectable", "setting": "human T cells [3]; human peripheral blood T cells", "result": 0.1, "unit": "pM"}]}
{"compound": "CN1CC[C@]23c4c5ccc(O)c4O[C@H]2[C@@H](O)C=C[C@H]3[C@H]1C5", "note": "[morphine]", "values": [{"measurement": "lymphocyte trafficking in vivo", "setting": "[4]", "result": "enhance lymphocyte trafficking"}, {"measurement": "leukocyte changes in rabbits", "setting": "leukocytes", "result": "caused a leukocytosis in parallel with a depletion of lymphocyte blasts and other hematopoietic precursors in the bone marrow"}]}
{"compound": "(D-Pen^2,5, p-Cl-Phe^4)-ENK", "values": [{"measurement": "[Ca^2+ ]i response", "setting": "Jurkat cells [5]", "result": "stimulated the Ca^2+ response"}, {"measurement": "concentration eliciting [Ca^2+ ]i response", "setting": "Jurkat cells [5]", "result": "10^-8 to 10^-6 M"}]}
{"compound": "DPDPE ([D-Pen2,5]enkephalin), delta-selective opiate receptor agonist (peptide)", "values": [{"measurement": "Kd", "setting": "[6]", "result": 0.2, "unit": "nM"}]}
{"compound": "fluorescein derivative of methionine enkephalin (MET-ENK-FITC) (peptide)", "values": [{"measurement": "Kd", "setting": "[7]", "result": 1.36, "unit": "nM"}, {"measurement": "Kd", "setting": "[8]", "result": 181, "unit": "nM"}, {"measurement": "Kd", "setting": "[9]", "result": 318, "unit": "nM"}, {"measurement": "Kd", "setting": "[10]", "result": 1.01, "unit": "nM"}]}
